Experimental data taken from patent publication US20180030500A1, “ENRICHMENT AND SELECTIVE CULTURE OF MYCOBACTERIA” (priority 2015, published 2018).
Like-named read-outs stand apart in the source and are kept apart here.

How the values were obtained:
Mycobacteria = settings: 20 strains, 7 days
Pseudomonas aeruginosa = settings: 50 strains, 7 days
Enterobacteria = settings: 7 strains, 7 days
Gram-positive bacteria = settings: 10 strains, 7 days
[1] = selective agent 16 mg/l in medium L
[2] = selective agent 32 mg/l in medium L
[3] = selective agent 64 mg/l in medium L
[4] = selective agent 128 mg/l in medium L
[5] = selective agent 0.125 mg/l in medium L
[6] = selective agent 0.25 mg/l in medium L
[7] = selective agent 0.5 mg/l in medium L
[8] = selective agent 400 mg/l in medium L
[9] = selective agent 800 mg/l in medium L
[10] = selective agent 1600 mg/l in medium L
[11] = selective agent 2.5 mg/l in medium L
[12] = selective agent 5 mg/l in medium L
[13] = selective agent 10 mg/l in medium L
[14] = selective agent 5.0 mg/l in medium L

## CCn1cc(C(=O)O)c(=O)c2ccc(C)nc21 [nalidixic acid]
Mycobacteria; [1]
  Number of strains having shown growth: 20
  Percentage of strains having shown growth: (100%)
Mycobacteria; [2]
  Number of strains having shown growth: 20
  Percentage of strains having shown growth: (100%)
Mycobacteria; [3]
  Number of strains having shown growth: 20
  Percentage of strains having shown growth: (100%)
Pseudomonas aeruginosa; [1]
  Number of strains having shown growth: 50
  Percentage of strains having shown growth: (100%)
Pseudomonas aeruginosa; [2]
  Number of strains having shown growth: 43
  Percentage of strains having shown growth: (86%)
Pseudomonas aeruginosa; [3]
  Number of strains having shown growth: 35
  Percentage of strains having shown growth: (70%)
Enterobacteria; [1]
  Number of strains having shown growth: 4
  Percentage of strains having shown growth: (57%)
Enterobacteria; [2]
  Number of strains having shown growth: 0
Enterobacteria; [3]
  Number of strains having shown growth: 0
Gram-positive bacteria; [1]
  Number of strains having shown growth: 9
  Percentage of strains having shown growth: (90%)
Gram-positive bacteria; [2]
  Number of strains having shown growth: 8
  Percentage of strains having shown growth: (80%)
Gram-positive bacteria; [3]
  Number of strains having shown growth: 7
  Percentage of strains having shown growth: (70%)

## colistin methanesulfonate
Mycobacteria; [2]
  Number of strains having shown growth: 20
  Percentage of strains having shown growth: (100%)
Mycobacteria; [3]
  Number of strains having shown growth: 20
  Percentage of strains having shown growth: (100%)
Mycobacteria; [4]
  Number of strains having shown growth: 20
  Percentage of strains having shown growth: (100%)
Pseudomonas aeruginosa; [2]
  Number of strains having shown growth: 5
  Percentage of strains having shown growth: (10%)
Pseudomonas aeruginosa; [3]
  Number of strains having shown growth: 5
  Percentage of strains having shown growth: (10%)
Pseudomonas aeruginosa; [4]
  Number of strains having shown growth: 5
  Percentage of strains having shown growth: (10%)
Enterobacteria; [2]
  Number of strains having shown growth: 3
  Percentage of strains having shown growth: (43%)
Enterobacteria; [3]
  Number of strains having shown growth: 3
  Percentage of strains having shown growth: (43%)
Enterobacteria; [4]
  Number of strains having shown growth: 3
  Percentage of strains having shown growth: (43%)
Gram-positive bacteria; [2]
  Number of strains having shown growth: 7
  Percentage of strains having shown growth: (70%)
Gram-positive bacteria; [3]
  Number of strains having shown growth: 6
  Percentage of strains having shown growth: (60%)
Gram-positive bacteria; [4]
  Number of strains having shown growth: 5
  Percentage of strains having shown growth: (50%)

## CN(C)c1ccc(C(=C2C=CC(=[N+](C)C)C=C2)c2ccccc2)cc1 [malachite green]
Mycobacteria; [5]
  Number of strains having shown growth: 16
  Percentage of strains having shown growth: (80%)
Mycobacteria; [6]
  Number of strains having shown growth: 20
  Percentage of strains having shown growth: (100%)
Mycobacteria; [7]
  Number of strains having shown growth: 20
  Percentage of strains having shown growth: (100%)
Pseudomonas aeruginosa; [5]
  Number of strains having shown growth: 50
  Percentage of strains having shown growth: (100%)
Pseudomonas aeruginosa; [6]
  Number of strains having shown growth: 50
  Percentage of strains having shown growth: (100%)
Pseudomonas aeruginosa; [7]
  Number of strains having shown growth: 50
  Percentage of strains having shown growth: (100%)
Enterobacteria; [5]
  Number of strains having shown growth: 7
  Percentage of strains having shown growth: (100%)
Enterobacteria; [6]
  Number of strains having shown growth: 7
  Percentage of strains having shown growth: (100%)
Enterobacteria; [7]
  Number of strains having shown growth: 7
  Percentage of strains having shown growth: (100%)
Gram-positive bacteria; [5]
  Number of strains having shown growth: 10
  Percentage of strains having shown growth: (100%)
Gram-positive bacteria; [6]
  Number of strains having shown growth: 10
  Percentage of strains having shown growth: (100%)
Gram-positive bacteria; [7]
  Number of strains having shown growth: 9
  Percentage of strains having shown growth: (90%)

## C[C@@H]1O[C@@H]1P(=O)(O)O [fosfomycin]
Mycobacteria; [8]
  Number of strains having shown growth: 20
  Percentage of strains having shown growth: (100%)
Mycobacteria; [9]
  Number of strains having shown growth: 20
  Percentage of strains having shown growth: (100%)
Mycobacteria; [10]
  Number of strains having shown growth: 20
  Percentage of strains having shown growth: (100%)
Pseudomonas aeruginosa; [8]
  Number of strains having shown growth: 15
  Percentage of strains having shown growth: (30%)
Pseudomonas aeruginosa; [9]
  Number of strains having shown growth: 8
  Percentage of strains having shown growth: (16%)
Pseudomonas aeruginosa; [10]
  Number of strains having shown growth: 6
  Percentage of strains having shown growth: (12%)
Enterobacteria; [8]
  Number of strains having shown growth: 3
  Percentage of strains having shown growth: (43%)
Enterobacteria; [9]
  Number of strains having shown growth: 2
  Percentage of strains having shown growth: (29%)
Enterobacteria; [10]
  Number of strains having shown growth: 2
  Percentage of strains having shown growth: (29%)
Gram-positive bacteria; [8]
  Number of strains having shown growth: 0
Gram-positive bacteria; [9]
  Number of strains having shown growth: 0
Gram-positive bacteria; [10]
  Number of strains having shown growth: 0

## CN[C@H](CC(C)C)C(=O)N[C@H]1C(=O)N[C@@H](CC(N)=O)C(=O)N[C@H]2C(=O)N[C@H]3C(=O)N[C@H](C(=O)N[C@H](C(=O)O)c4cc(O)cc(O)c4-c4cc3ccc4O)[C@H](O)c3ccc(c(Cl)c3)Oc3cc2cc(c3O[C@@H]2O[C@H](CO)[C@@H](O)[C@H](O)[C@H]2O[C@H]2C[C@](C)(N)[C@H](O)[C@H](C)O2)Oc2ccc(cc2Cl)[C@H]1O [vancomycin]
Mycobacteria; [11]
  Number of strains having shown growth: 19
  Percentage of strains having shown growth: (95%)
Mycobacteria; [12]
  Number of strains having shown growth: 19
  Percentage of strains having shown growth: (95%)
Mycobacteria; [13]
  Number of strains having shown growth: 19
  Percentage of strains having shown growth: (95%)
Pseudomonas aeruginosa; [11]
  Number of strains having shown growth: 50
  Percentage of strains having shown growth: (100%)
Pseudomonas aeruginosa; [14]
  Number of strains having shown growth: 50
  Percentage of strains having shown growth: (100%)
Pseudomonas aeruginosa; [13]
  Number of strains having shown growth: 50
  Percentage of strains having shown growth: (100%)
Enterobacteria; [11]
  Number of strains having shown growth: 7
  Percentage of strains having shown growth: (100%)
Enterobacteria; [14]
  Number of strains having shown growth: 7
  Percentage of strains having shown growth: (100%)
Enterobacteria; [13]
  Number of strains having shown growth: 7
  Percentage of strains having shown growth: (100%)
Gram-positive bacteria; [11]
  Number of strains having shown growth: 0
Gram-positive bacteria; [14]
  Number of strains having shown growth: 0
Gram-positive bacteria; [13]
  Number of strains having shown growth: 0
